Measured values taken from patent US10988477B2 (Merck Patent GmbH, priority 2018, dated 2021).

Target: GCN2 kinase (Homo sapiens, UniProt Q9P2K8)
Assay: GCN2 enzyme inhibition assay (Transcreener ADP2 fluorescence polarization)
Type: biochemical
Details: 280 μM ATP
Procedure, shortened: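 ADP formation read by Transcreener FP after a 1 h, 25 °C kinase reaction containing 280 μM ATP, 200 μM (RS)7 substrate and 4 nM GCN2, pH 7.5 Tris buffer. Compounds (0–8 μM final) were added 10 min before ATP. Percent inhibition gave IC50 and apparent Ki via tight-binding fit.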

[1] = compounds of Formula II, 4 nM GCN2 kinase
[2] = compounds of Formula III, 4 nM GCN2 kinase
[3] = Enzyme activity for compounds of Formula IV, Ki(app), 25° C.

GCN2 kinase, sequence (Q9P2K8 whole entry): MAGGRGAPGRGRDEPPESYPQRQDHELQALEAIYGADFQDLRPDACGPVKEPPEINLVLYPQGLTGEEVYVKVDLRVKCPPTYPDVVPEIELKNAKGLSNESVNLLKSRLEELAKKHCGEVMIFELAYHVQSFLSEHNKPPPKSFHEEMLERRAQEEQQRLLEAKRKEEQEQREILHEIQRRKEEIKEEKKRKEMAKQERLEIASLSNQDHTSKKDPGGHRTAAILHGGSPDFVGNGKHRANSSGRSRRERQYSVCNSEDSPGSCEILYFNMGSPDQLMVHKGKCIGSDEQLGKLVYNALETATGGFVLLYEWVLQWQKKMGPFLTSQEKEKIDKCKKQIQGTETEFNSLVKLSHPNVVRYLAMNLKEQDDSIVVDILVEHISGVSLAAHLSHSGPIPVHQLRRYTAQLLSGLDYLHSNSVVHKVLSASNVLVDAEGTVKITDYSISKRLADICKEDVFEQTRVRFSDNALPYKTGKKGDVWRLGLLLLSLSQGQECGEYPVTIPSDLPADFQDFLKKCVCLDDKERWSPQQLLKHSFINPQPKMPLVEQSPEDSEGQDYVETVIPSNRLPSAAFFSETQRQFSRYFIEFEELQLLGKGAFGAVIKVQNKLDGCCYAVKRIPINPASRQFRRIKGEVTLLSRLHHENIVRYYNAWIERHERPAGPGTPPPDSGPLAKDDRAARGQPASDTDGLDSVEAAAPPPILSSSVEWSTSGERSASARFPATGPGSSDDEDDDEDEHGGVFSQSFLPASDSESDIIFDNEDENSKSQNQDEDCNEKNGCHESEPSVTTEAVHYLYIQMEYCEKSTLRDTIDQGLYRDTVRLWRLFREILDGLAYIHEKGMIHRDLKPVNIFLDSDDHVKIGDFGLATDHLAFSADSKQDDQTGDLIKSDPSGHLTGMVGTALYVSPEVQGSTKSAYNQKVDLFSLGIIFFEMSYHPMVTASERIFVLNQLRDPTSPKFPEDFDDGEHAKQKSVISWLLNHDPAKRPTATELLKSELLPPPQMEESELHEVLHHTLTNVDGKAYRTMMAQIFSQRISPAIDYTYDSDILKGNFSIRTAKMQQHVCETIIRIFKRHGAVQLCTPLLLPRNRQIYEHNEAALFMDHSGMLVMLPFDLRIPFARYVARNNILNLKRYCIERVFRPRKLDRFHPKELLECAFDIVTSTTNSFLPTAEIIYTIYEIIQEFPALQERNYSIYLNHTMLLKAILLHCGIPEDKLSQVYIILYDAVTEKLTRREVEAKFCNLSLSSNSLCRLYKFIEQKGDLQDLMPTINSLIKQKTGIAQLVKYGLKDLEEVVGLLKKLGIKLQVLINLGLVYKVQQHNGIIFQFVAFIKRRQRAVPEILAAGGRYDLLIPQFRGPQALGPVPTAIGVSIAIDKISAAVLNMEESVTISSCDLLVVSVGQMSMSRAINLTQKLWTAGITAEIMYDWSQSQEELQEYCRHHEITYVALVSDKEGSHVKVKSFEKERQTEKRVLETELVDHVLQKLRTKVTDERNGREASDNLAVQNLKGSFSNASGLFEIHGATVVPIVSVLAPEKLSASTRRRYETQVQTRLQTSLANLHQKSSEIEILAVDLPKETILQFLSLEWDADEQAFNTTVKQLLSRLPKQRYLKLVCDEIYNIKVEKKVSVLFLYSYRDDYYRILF

| Structure (SMILES) | Ki [3] [nM] | further results |
| --- | --- | --- |
| FC(F)(F)c1ccc2ncc(-c3ccnc(N4CCCC(c5ncc[nH]5)C4)c3)n2n1 (stereo not drawn) [II-746] |  | Ki [1]: 10 to 1000 nM |
| Cc1nnc([C@@H]2CN(c3cc(-c4cnc5ccc(C(F)(F)F)nn45)ccn3)C[C@H](C)O2)o1 [II-747] |  | Ki [1]: 10 to 1000 nM |
| Cc1noc([C@@H]2CN(c3cc(-c4cnc5ccc(C(F)F)nn45)ccn3)C[C@H](C)O2)n1 [II-748] |  | Ki [1]: 10 to 1000 nM |
| FC(F)c1ccc2ncc(-c3ccnc(N4CCCC(c5c[nH]cn5)C4)c3)n2n1 (stereo not drawn) [II-749] |  | Ki [1]: 10 to 1000 nM |
| FC(F)c1ccc2ncc(-c3ccnc(N4CCCC(c5cn[nH]c5)C4)c3)n2n1 (stereo not drawn) [II-750] |  | Ki [1]: < 10 nM |
| C[C@H]1[C@H](CNS(C)(=O)=O)CCCN1c1cc(-c2cnc3ccc(C(F)F)nn23)ncn1 [II-756, N-(((2S,3S)-1-(6-(6-(difluoromethyl)imidazo[1,2-b]pyridazin-3-yl)pyrimidin-4-yl)-2-methylpiperidin-3-yl)methyl)methanesulfonamide] |  | IC50 [1]: > 1000 nM |
| Cc1nn(C)cc1[C@H]1CN(c2cc(-c3cnc4ccc(C(F)(F)F)nn34)ncn2)C[C@H](C)O1 [II-758, (2S,6S)-2-(1,3-dimethyl-1H-pyrazol-4-yl)-6-methyl-4-(6-(6-(trifluoromethyl)imidazo[1,2-b]pyridazin-3-yl)pyrimidin-4-yl)morpholine] |  | IC50 [1]: > 1000 nM |
| C[C@@H]1C[C@H](N=S(C)(C)=O)CN(c2cc(-c3cnc4ccc(N5CC(F)C5)nn34)ncn2)C1 [II-764, (((3S,5R)-1-(6-(6-(3-fluoroazetidin-1-yl)imidazo[1,2-b]pyridazin-3-yl)pyrimidin-4-yl)-5-methylpiperidin-3-yl)imino)dimethyl-16-sulfanone] |  | IC50 [1]: 10 to 1000 nM |
| CC1C(CNS(C)(=O)=O)C(F)(F)C(C)CN1c1cc(-c2cnn3ccc(C(F)F)nc23)ncn1 (stereo not drawn) [III-13, N-[[1-[6-[5-(Difluoromethyl)pyrazolo[1,5-a]pyrimidin-3-yl]pyrimidin-4-yl]-4,4-difluoro-2,5-dimethyl-3-piperidyl]methyl]methanesulfonamide] |  | Ki [2]: < 10 nM |
| CC1CC(N=S(C)(C)=O)CN(c2cc(-c3cnn4ccc(C(F)F)nc34)ncn2)C1 (stereo not drawn) [III-14, [1-[6-[5-(Difluoromethyl)pyrazolo[1,5-a]pyrimidin-3-yl]pyrimidin-4-yl]-5-methyl-3-piperidyl]imino-dimethyl-oxo-6-sulfane] |  | Ki [2]: 10 to 1000 nM |
| c1ccc(-c2cc(-c3cnn4cccnc34)ccn2)cc1 [III-15, 3-(2-phenylpyridin-4-yl)pyrazolo[1,5-a]pyrimidine] |  | Ki [2]: > 1000 nM |
| c1cc(-c2ccc3cc[nH]c3c2)nc(-c2cnc3cnccn23)c1 [IV-1, 3-(6-(1H-Indol-6-yl)pyridin-2-yl)imidazo[1,2-a]pyrazine] | 100 to 1000 |  |
| CC(=O)N1CCN(c2ccnc(-c3cnc4cnc(C#N)cn34)n2)CC1 [IV-31, 3-(4-(4-Acetylpiperazin-1-yl)pyrimidin-2-yl)imidazo[1,2-a]pyrazine-6-carbonitrile] | 100 to 1000 |  |
| Cc1cn2c(-c3nccc(N4CCO[C@H](CNS(C)(=O)=O)C4)n3)cnc2cn1 [IV-47, (S)—N-((4-(2-(6-Methylimidazo[1,2-a]pyrazin-3-yl)pyrimidin-4-yl)morpholin-2-yl)methyl)methanesulfonamide] | 100 to 1000 |  |
| CS(=O)(=O)NCC1CCN(c2ccnc(-c3cnc4cnc(C(F)F)cn34)n2)C1 (stereo not drawn) [IV-66, N-((1-(2-(6-(Difluoromethyl)imidazo[1,2-a]pyrazin-3-yl)pyrimidin-4-yl)pyrrolidin-3-yl)methyl)methanesulfonamide] | 100 to 1000 |  |
| CS(=N)(=O)c1cccc(-c2ccnc(-c3cnc4cnc(C(F)F)cn34)n2)c1 (stereo not drawn) [IV-79, (3-(2-(6-(difluoromethyl)imidazo[1,2-a]pyrazin-3-yl)pyrimidin-4-yl)phenyl)(imino)(methyl)-λ^6-sulfanone] | 100 to 1000 |  |
| [O-][S+]1CCN(c2ccnc(-c3cnc4cnc(C(F)F)cn34)n2)CC1 [IV-80, 4-(2-(6-(Difluoromethyl)imidazo[1,2-a]pyrazin-3-yl)pyrimidin-4-yl)thiomorpholine 1-oxide] | 100 to 1000 |  |
| O=S1(=O)CCN(c2ccnc(-c3cnc4cnc(C(F)F)cn34)n2)CC1 [IV-84, 4-(2-(6-(Difluoromethyl)imidazo[1,2-a]pyrazin-3-yl)pyrimidin-4-yl)thiomorpholine 1,1-dioxide] | 100 to 1000 |  |
| CC1C(NS(C)(=O)=O)CCCN1c1ccnc(-c2cnc3cnc(C(F)F)cn23)n1 (stereo not drawn) [IV-127, N-(1-(2-(6-(Difluoromethyl)imidazo[1,2-a]pyrazin-3-yl)pyrimidin-4-yl)-2-methylpiperidin-3-yl)methanesulfonamide] | 100 to 1000 |  |
| CC(C)(C)OC(=O)N1CCC2(CC1)CCN(c1ccnc(-c3cnc4cnc(C(F)F)cn34)n1)C2 [IV-133, tert-Butyl 2-(2-(6-(difluoromethyl)imidazo[1,2-a]pyrazin-3-yl)pyrimidin-4-yl)-2,8-diazaspiro[4.5]decane-8-carboxylate] | 100 to 1000 |  |
| FC(F)c1cn2c(-c3nccc(-c4cccc(N5CCNCC5)n4)n3)cnc2cn1 [IV-149, 6-(Difluoromethyl)-3-(4-(6-(piperazin-1-yl)pyridin-2-yl)pyrimidin-2-yl)imidazo[1,2-a]pyrazine] | 100 to 1000 |  |
| CS(=O)(=O)N1CCN(c2cccc(-c3ccnc(-c4cnc5cnc(C(F)F)cn45)n3)n2)CC1 [IV-151, 6-(Difluoromethyl)-3-(4-(6-(4-(methylsulfonyl)piperazin-1-yl)pyridin-2-yl)pyrimidin-2-yl)imidazo[1,2-a]pyrazine] | 100 to 1000 |  |
| FC(F)c1cn2c(-c3nccc(-c4cnn(C5CCOC5)c4)n3)cnc2cn1 (stereo not drawn) [IV-153, 6-(Difluoromethyl)-3-(4-(1-(tetrahydrofuran-3-yl)-1H-pyrazol-4-yl)pyrimidin-2-yl)imidazo[1,2-a]pyrazine] | 100 to 1000 |  |
| Cn1ccc2cc(-c3ccnc(-c4cnc5cnc(C(F)F)cn45)n3)ccc21 [IV-158, 6-(Difluoromethyl)-3-(4-(1-methyl-1H-indol-5-yl)pyrimidin-2-yl)imidazo[1,2-a]pyrazine] | 100 to 1000 |  |
| FC(F)c1cn2c(-c3nccc(C4=CCCC4)n3)cnc2cn1 [IV-163, 3-(4-(Cyclopent-1-en-1-yl)pyrimidin-2-yl)-6-(difluoromethyl)imidazo[1,2-a]pyrazine] | 100 to 1000 |  |
| CS(=O)(=O)NCC(=O)Nc1cccc(-c2ccnc(-c3cnc4cnc(C(F)F)cn34)n2)c1 [IV-173, N-(3-(2-(6-(Difluoromethyl)imidazo[1,2-a]pyrazin-3-yl)pyrimidin-4-yl)phenyl)-2-(methylsulfonamido)acetamide] | 100 to 1000 |  |
| CC1CCCN(c2ccnc(-c3cnc4cnc(C(N)=O)cn34)n2)C1 (stereo not drawn) [IV-187, 3-(4-(3-Methylpiperidin-1-yl)pyrimidin-2-yl)imidazo[1,2-a]pyrazine-6-carboxamide] | 10 to 100 |  |
| CC(=O)N1CCN(c2nc(C)cc(-c3cnc4cnc(C(N)=O)cn34)n2)CC1 [IV-188, 3-(2-(4-Acetylpiperazin-1-yl)-6-methylpyrimidin-4-yl)imidazo[1,2-a]pyrazine-6-carboxamide] | 100 to 1000 |  |
| CC(=O)N1CCCN(c2ccnc(-c3cnc4cnc(C(N)=O)cn34)n2)CC1 [IV-190, 3-(4-(4-Acetyl-1,4-diazepan-1-yl)pyrimidin-2-yl)imidazo[1,2-a]pyrazine-6-carboxamide] | 100 to 1000 |  |
| Cc1cc(N2CCN(C(N)=O)CC2)nc(-c2cnc3cnc(C(N)=O)cn23)n1 [IV-196, 3-(4-(4-Carbamoylpiperazin-1-yl)-6-methylpyrimidin-2-yl)imidazo[1,2-a]pyrazine-6-carboxamide] | 10 to 100 |  |
